Tests used:
Assay in all cases: fitness (endpoint OD595 vs no drug) (fraction); higher = more growth
S. aureus Newman = tested on: S. aureus Newman
How it was run: (§1)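 At 37 °C, bacteria in TSB, LB Lennox or CY were grown in 384-well plates from a starting OD595 of 0.01. OD595 was measured every 30 min for 14 h, with the first reading used as background. Fitness is the optical density at the switch to stationary phase as a fraction of the robust mean of no-drug control wells, capped at 1.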

S. pneumoniae D39V = tested on: S. pneumoniae D39V
How it was run: as §1

B. subtilis 168 = tested on: B. subtilis 168
How it was run: as §1
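Further: OD595 on entry to stationary phase over no-drug wells; at most 1.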

C[C@@H]1O[C@@H]1P(=O)(O)O [Fosfomycin] + CC1=C(C(=O)O)N2C(=O)[C@@H](NC(=O)[C@H](N)c3ccccc3)[C@H]2SC1 [Cephalexin]
Settings	fitness
B. subtilis 168, first compound 1.562 µg/mL, partner 0.125 µg/mL	0.66
B. subtilis 168, first compound 1.562 µg/mL, partner 0.25 µg/mL	0.776
B. subtilis 168, first compound 1.562 µg/mL, partner 0.5 µg/mL	0.774
B. subtilis 168, first compound 3.124 µg/mL, partner 0.125 µg/mL	0.573
B. subtilis 168, first compound 3.124 µg/mL, partner 0.25 µg/mL	0.656
B. subtilis 168, first compound 3.124 µg/mL, partner 0.5 µg/mL	0.611
B. subtilis 168, first compound 6.248 µg/mL, partner 0.125 µg/mL	0.404
B. subtilis 168, first compound 6.248 µg/mL, partner 0.25 µg/mL	0.396
B. subtilis 168, first compound 6.248 µg/mL, partner 0.5 µg/mL	0.373
S. aureus Newman, first compound 0.781 µg/mL, partner 0.25 µg/mL	0.677
S. aureus Newman, first compound 0.781 µg/mL, partner 0.5 µg/mL	0.662
S. aureus Newman, first compound 0.781 µg/mL, partner 1 µg/mL	0.685
S. aureus Newman, first compound 1.562 µg/mL, partner 0.25 µg/mL	0.604
S. aureus Newman, first compound 1.562 µg/mL, partner 0.5 µg/mL	0.561
S. aureus Newman, first compound 1.562 µg/mL, partner 1 µg/mL	0.616
S. aureus Newman, first compound 3.124 µg/mL, partner 0.25 µg/mL	0.309
S. aureus Newman, first compound 3.124 µg/mL, partner 0.5 µg/mL	0.286
S. aureus Newman, first compound 3.124 µg/mL, partner 1 µg/mL	0.284
S. pneumoniae D39V, first compound 1.25 µg/mL, partner 1 µg/mL	0.768
S. pneumoniae D39V, first compound 1.25 µg/mL, partner 2 µg/mL	0.212
S. pneumoniae D39V, first compound 1.25 µg/mL, partner 4 µg/mL	0.0339
S. pneumoniae D39V, first compound 2.5 µg/mL, partner 2 µg/mL	0.191
S. pneumoniae D39V, first compound 2.5 µg/mL, partner 4 µg/mL	0.0402
S. pneumoniae D39V, first compound 5 µg/mL, partner 2 µg/mL	0.0752
S. pneumoniae D39V, first compound 5 µg/mL, partner 4 µg/mL	0.0499

fitness, one replicate
Settings	first compound 1.25 µg/mL	first compound 1.562 µg/mL	first compound 2.5 µg/mL	first compound 3.124 µg/mL	first compound 5 µg/mL	first compound 6.248 µg/mL
B. subtilis 168, partner 1 µg/mL	–	0.797	–	0.673	–	0.542
S. pneumoniae D39V, partner 0.125 µg/mL	0.937	–	0.879	–	0.713	–
S. pneumoniae D39V, partner 0.25 µg/mL	0.933	–	0.847	–	0.762	–
S. pneumoniae D39V, partner 0.5 µg/mL	0.899	–	0.847	–	0.751	–

CO/N=C(\C(=O)N[C@@H]1C(=O)N2C(C(=O)O)=C(COC(N)=O)CS[C@H]12)c1ccco1 [Cefuroxime] + N[C@@H]1CONC1=O [Cycloserine D]
fitness, one replicate
Settings	first compound 0.04875 µg/mL	first compound 0.0975 µg/mL	first compound 0.195 µg/mL	first compound 0.39 µg/mL	first compound 0.78 µg/mL	first compound 1.562 µg/mL	first compound 3.125 µg/mL	first compound 6.25 µg/mL
B. subtilis 168, partner 0.125 µg/mL	–	–	–	0.337	0.303	0.361	0.287	0.201
B. subtilis 168, partner 0.25 µg/mL	–	–	–	0.404	0.319	0.305	0.22	0.173
B. subtilis 168, partner 0.5 µg/mL	–	–	–	0.306	0.284	0.228	0.204	0.111
S. aureus Newman, partner 0.375 µg/mL	0.926	0.887	0.935	–	–	–	–	–
S. aureus Newman, partner 0.75 µg/mL	0.965	0.822	0.908	–	–	–	–	–
S. aureus Newman, partner 1.5 µg/mL	0.871	0.861	0.976	–	–	–	–	–

fitness, B. subtilis 168
Settings	partner 0.125 µg/mL	partner 0.25 µg/mL	partner 0.5 µg/mL
first compound 0.0975 µg/mL	0.677	0.63	0.648
first compound 0.195 µg/mL	0.396	0.41	0.372

O=C(O)c1cn(C2CC2)c2cc(N3CCNCC3)c(F)cc2c1=O [Ciprofloxacin] + CO[C@@]12[C@H](COC(N)=O)C3=C(C(=O)C(C)=C(N)C3=O)N1C[C@@H]1N[C@@H]12 [Mitomycin C]
Settings	fitness
S. aureus Newman, first compound 0.0375 µg/mL, partner 0.0156 µg/mL	0.609
S. aureus Newman, first compound 0.0375 µg/mL, partner 0.0312 µg/mL	0.557
S. aureus Newman, first compound 0.0375 µg/mL, partner 0.0625 µg/mL	0.366
S. aureus Newman, first compound 0.075 µg/mL, partner 0.0156 µg/mL	0.573
S. aureus Newman, first compound 0.075 µg/mL, partner 0.0312 µg/mL	0.497
S. aureus Newman, first compound 0.075 µg/mL, partner 0.0625 µg/mL	0.219
S. aureus Newman, first compound 0.15 µg/mL, partner 0.0156 µg/mL	0.152
S. aureus Newman, first compound 0.15 µg/mL, partner 0.0312 µg/mL	0.0809
S. aureus Newman, first compound 0.15 µg/mL, partner 0.0625 µg/mL	0.0294
S. pneumoniae D39V, first compound 0.125 µg/mL, partner 0.001075 µg/mL	0.917
S. pneumoniae D39V, first compound 0.125 µg/mL, partner 0.002 µg/mL	0.75
S. pneumoniae D39V, first compound 0.125 µg/mL, partner 0.00215 µg/mL	0.892
S. pneumoniae D39V, first compound 0.125 µg/mL, partner 0.004 µg/mL	0.632
S. pneumoniae D39V, first compound 0.125 µg/mL, partner 0.0043 µg/mL	0.766
S. pneumoniae D39V, first compound 0.125 µg/mL, partner 0.008 µg/mL	0.322
S. pneumoniae D39V, first compound 0.25 µg/mL, partner 0.001075 µg/mL	0.861
S. pneumoniae D39V, first compound 0.25 µg/mL, partner 0.00215 µg/mL	0.822
S. pneumoniae D39V, first compound 0.25 µg/mL, partner 0.0043 µg/mL	0.736
S. pneumoniae D39V, first compound 0.5 µg/mL, partner 0.001075 µg/mL	0.658
S. pneumoniae D39V, first compound 0.5 µg/mL, partner 0.00215 µg/mL	0.643
S. pneumoniae D39V, first compound 0.5 µg/mL, partner 0.0043 µg/mL	0.523
S. pneumoniae D39V, first compound 0.5 µg/mL, partner 0.008 µg/mL	0.188

S. pneumoniae D39V, first compound 0.25 µg/mL, one replicate
Settings	fitness
partner 0.002 µg/mL	0.541
partner 0.004 µg/mL	0.394
partner 0.008 µg/mL	0.154
